Source: ChEMBL document CHEMBL4828751, “Discovery of novel tubulin/HDAC dual-targeting inhibitors with strong antitumor and antiangiogenic potency” (Eur J Med Chem, 2021)
Active and inactive are the calls of the source. No cut-off for these calls is given here.

Legend:
Tubulin = test: Inhibition of tubulin polymerization (unknown origin) measured after 1 min by fluorescence assay; format: protein-complex assay, Homo sapiens; details: read-out: IC50
MGC-803 [1] = test: Antiproliferative activity against human MGC-803 cells assessed as cell growth inhibition after 72 hrs by SRB assay; format: functional, cell-based; details: MGC-803, 72 h
MGC-803 [2] = test: Induction of G2/M phase cell cycle arrest in human MGC-803 cells assessed as upregulation of cyclinB1 protein expression at 7.5 to 30 nM measured after 48 hrs by western blot analysis; format: functional, cell-based; details: dose 7.5-30 nM
U-937 = test: Antiproliferative activity against human U-937 cells assessed as cell growth inhibition after 72 hrs by CCK8 assay; format: functional, cell-based; details: U-937, 72 h
MGC-803 [3] = test: Induction of apoptosis in human MGC-803 cells assessed as increase in PARP expression incubated for 24 hrs by Western blot analysis; format: functional, cell-based; details: dose 7.5-30 nM
MGC-803 [4] = test: Induction of apoptosis in human MGC-803 cells assessed as late apoptotic cells at 15 nM measured after 48 hrs by Annexin V-APC/PI double staining based flow cytometry assay (reference value: 1.05 %); format: functional, cell-based
MGC-803 [5] = test: Induction of ROS generation in human MGC-803 cells assessed as increase in intracellular ROS level incubated for 24 hrs by DCFH-DA staining based flow cytometric analysis; format: functional, cell-based; details: dose 7.5-30 nM
MGC-803 [6] = test: Induction of cell cycle arrest in human MGC-803 cells assessed as accumulation at S phase at 30 nM incubated for 24 hrs by propidium iodide staining based flow cytometry (reference value: 17.3 %); format: functional
HUVEC = test: Antiinvasive activity in HUVEC cells assessed as decrease in cell invasion at 5 to 20 nM measured after 48 hrs by transwell assay; format: functional, cell-based; details: Homo sapiens, dose 5-20 nM
MGC-803 [7] = test: Induction of apoptosis in human MGC-803 cells assessed as increase in Caspase-7 expression incubated for 24 hrs by Western blot analysis; format: functional, cell-based; details: dose 7.5-30 nM
MGC-803 [8] = test: Antiinvasive activity in human MGC-803 cells assessed as decrease in number of migrated MGC-803 cells at 7.5 to 30 nM measured after 48 hrs by transwell assay; format: functional, cell-based; details: dose 7.5-30 nM
MGC-803 [9] = test: Induction of cell cycle arrest in human MGC-803 cells assessed as accumulation at G1 phase at 30 nM incubated for 24 hrs by propidium iodide staining based flow cytometry (reference value: 45.67 %); format: functional
A549 = test: Antiproliferative activity against human A549 cells assessed as cell growth inhibition after 72 hrs by SRB assay; format: functional, cell-based; details: A549, 72 h
Tubulin (Homo sapiens) [10] = target: T1, Tubulin (Homo sapiens) (UniProt P68371+Q9H4B7+P0DPH7+P68366+Q13509+Q71U36+P04350+Q3ZCM7+P07437+P68363+Q9BQE3+Q6PEY2+Q13885+Q9BVA1+Q9BUF5); test: Inhibition of tubulin polymerization in human MGC-803 cells assessed as blockage of spindle formation at 30 nM measured after 48 hrs by Hoechst staining based confocal microscopy analysis; format: cell-based
MGC-803 [11] = test: Induction of apoptosis in human MGC-803 cells assessed as early apoptotic cells at 30 nM measured after 48 hrs by Annexin V-APC/PI double staining based flow cytometry assay (reference value: 1.31 %); format: functional, cell-based
MGC-803 [12] = test: Induction of apoptosis in human MGC-803 cells assessed as increase in cleaved PARP expression incubated for 24 hrs by Western blot analysis; format: functional, cell-based
Tubulin (Homo sapiens) [13] = target: T1, Tubulin (Homo sapiens); test: Inhibition of tubulin polymerization in human MGC-803 cells assessed as change in shape of nucleus at 2 to 7.5 nM measured after 48 hrs by Hoechst staining based confocal microscopy analysis; format: cell-based; details: dose 2-7.5 nM
MGC-803 [14] = test: Induction of apoptosis in human MGC-803 cells assessed as early apoptotic cells at 15 nM measured after 48 hrs by Annexin V-APC/PI double staining based flow cytometry assay (reference value: 1.31 %); format: functional, cell-based
MGC-803 [15] = test: Induction of apoptosis in human MGC-803 cells assessed as late apoptotic cells at 7.5 nM measured after 48 hrs by Annexin V-APC/PI double staining based flow cytometry assay (reference value: 1.05 %); format: functional, cell-based
MGC-803 [16] = test: Induction of mitochondrial membrane potential loss in human MGC-803 cells after 48 hrs by JC-1 staining based flow cytometric analysis; format: functional, cell-based; details: dose 7.5-30 nM
MGC-803 [17] = test: Induction of cell cycle arrest in human MGC-803 cells assessed as accumulation at G2/M phase at 30 nM incubated for 24 hrs by propidium iodide staining based flow cytometry (reference value: 37.03 %); format: functional
MGC-803 [18] = test: Induction of ROS generation in human MGC-803 cells assessed as intracellular ROS level at 30 nM incubated for 24 hrs by DCFH-DA staining based flow cytometric analysis (reference value: 2.72 %); format: functional
MGC-803 [19] = test: Induction of cell cycle arrest in human MGC-803 cells assessed as accumulation at S phase at 7.5 nM incubated for 24 hrs by propidium iodide staining based flow cytometry (reference value: 17.3 %); format: functional
MGC-803 [20] = test: Antitumor activity against CMTPX- labeled human MGC-803 cells xenografted in zebrafish assessed as inhibition of tumor metastasis measured after 72 hrs by fluorescence microscopic analysis; format: functional, cell-based; details: dose 25-100 nM
MGC-803 [21] = test: Induction of apoptosis in human MGC-803 cells assessed as increase in cleaved Caspase-3 expression incubated for 24 hrs by Western blot analysis; format: functional, cell-based; details: dose 7.5-30 nM
MGC-803 [22] = test: Induction of apoptosis in human MGC-803 cells assessed as increase in Caspase-9 expression incubated for 24 hrs by Western blot analysis; format: functional, cell-based; details: dose 7.5-30 nM
MGC-803 [23] = test: Induction of mitochondrial membrane potential loss in human MGC-803 cells at 7.5 nM after 48 hrs by JC-1 staining based flow cytometric analysis (reference value: 86 %); format: functional
MGC-803 [24] = test: Induction of apoptosis in human MGC-803 cells assessed as viable cells at 30 nM measured after 48 hrs by Annexin V-APC/PI double staining based flow cytometry assay (reference value: 92.1 %); format: functional, cell-based
HepG2 = test: Antiproliferative activity against human HepG2 cells assessed as cell growth inhibition after 72 hrs by SRB assay; format: functional, cell-based; details: HepG2, 72 h
MGC-803 [25] = test: Induction of apoptosis in human MGC-803 cells assessed as necrotic cells at 15 nM measured after 48 hrs by Annexin V-APC/PI double staining based flow cytometry assay (reference value: 0.57 %); format: functional, cell-based
MGC-803 [26] = test: Induction of cell cycle arrest in human MGC-803 cells assessed as accumulation at G2/M phase at 15 nM incubated for 24 hrs by propidium iodide staining based flow cytometry (reference value: 37.03 %); format: functional
MGC-803 [27] = test: Induction of apoptosis in human MGC-803 cells assessed as viable cells at 15 nM measured after 48 hrs by Annexin V-APC/PI double staining based flow cytometry assay (reference value: 92.1 %); format: functional, cell-based
MGC-803 [28] = test: Induction of ROS generation in human MGC-803 cells assessed as intracellular ROS level at 7.5 nM incubated for 24 hrs by DCFH-DA staining based flow cytometric analysis (reference value: 2.72 %); format: functional
MGC-803 [29] = test: Induction of ROS generation in human MGC-803 cells assessed as intracellular ROS level at 15 nM incubated for 24 hrs by DCFH-DA staining based flow cytometric analysis (reference value: 2.72 %); format: functional

- IC50 (Tubulin): 1000 nM
- IC50 (MGC-803 [1]): 16 nM
- IC50 (U-937): 305 nM
- IC50 (A549): 191 nM
- inhibition (Tubulin (Homo sapiens) [10]): Active
- inhibition (Tubulin (Homo sapiens) [13]): Active
- IC50 (HepG2): 26 nM
Structure (SMILES): COc1ccc(/C=C\c2cc(OC)c(OC)c(OC)c2)cc1/C=C/C(=O)Nc1ccccc1N
- Activity (MGC-803 [2]): Active
- Activity (MGC-803 [3]): Dose-Dependent Effect
- Activity (MGC-803 [4]): Active
- Activity (MGC-803 [5]): Dose-Dependent Effect
- Activity (MGC-803 [6]): 13.6%
- inhibition (HUVEC): Active
- Activity (MGC-803 [7]): Dose-Dependent Effect
- Activity (MGC-803 [8]): Active
- Activity (MGC-803 [9]): 2.21%
- Activity (MGC-803 [11]): Active
- Activity (MGC-803 [12]): Dose-Dependent Effect
- Activity (MGC-803 [14]): Active
- Activity (MGC-803 [15]): Active
- Activity (MGC-803 [16]): Dose-Dependent Effect
- Activity (MGC-803 [17]): Dose-Dependent Effect
- Activity (MGC-803 [17]; record 2): 84.19%
- Activity (MGC-803 [18]): 51.4%
- Activity (MGC-803 [19]): 12.6%
- inhibition (MGC-803 [20]): Dose-Dependent Effect
- Activity (MGC-803 [21]): Dose-Dependent Effect
- Activity (MGC-803 [22]): Dose-Dependent Effect
- Activity (MGC-803 [23]): 82.9%
- Activity (MGC-803 [24]): Active
- Activity (MGC-803 [25]): Active
- Activity (MGC-803 [26]): Dose-Dependent Effect
- Activity (MGC-803 [26]; record 2): 48.16%
- Activity (MGC-803 [27]): Active
- Activity (MGC-803 [28]): 17.4%
- Activity (MGC-803 [29]): 26%
